In US10144715B2, “Piperazine derivatives as liver X receptor modulators” (priority 2014, dated 2018):
Like-named read-outs stand apart in the source and are kept apart here.

Tests used:
[1] = molecular target: Gal4 DNA binding domain fused to the LBD of LXRα in HEK293 cells (Homo sapiens (Human), UniProt Q13133); experiment: LXR luciferase transcriptional reporter gene assay, agonist mode, LXRα; format: cell-based; details: for EC50: read-out: Cell LXRα EC50
LXR α LBD protein = LXR α LBD protein (Homo sapiens (Human), UniProt Q13133); experiment: LXR α radioligand binding assay (SPA, competition with [3H]TO901317); details: read-out: LXRα Binding Ki
[2] = molecular target: Gal4 DNA binding domain fused to the LBD of LXRβ in HEK293 cells (Homo sapiens (Human), UniProt P55055); experiment: cell-based
LXR β LBD protein = LXR β LBD protein (Homo sapiens (Human), UniProt P55055); experiment: biochemical; format: binding
[3] = Biological Test Example 2, agonist mode
[4] = Biological Test Example 2, agonist mode, read-out: Cell LXRβ EC50
[5] = Biological Test Example 1, read-out: LXRβ Binding Ki
[6] = agonist mode, read-out: Cell LXRβ EC50

Sequence of LXR α LBD protein (Q13133 209-447): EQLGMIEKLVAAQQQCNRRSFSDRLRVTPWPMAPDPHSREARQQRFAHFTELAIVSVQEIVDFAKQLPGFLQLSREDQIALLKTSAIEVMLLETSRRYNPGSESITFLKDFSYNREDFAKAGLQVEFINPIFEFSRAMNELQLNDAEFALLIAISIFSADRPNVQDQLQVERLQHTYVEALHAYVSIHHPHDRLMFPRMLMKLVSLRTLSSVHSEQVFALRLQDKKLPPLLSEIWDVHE
Sequence of Gal4 DNA binding domain fused to the LBD of LXRα in HEK293 cells (Q13133 209-447): as above
Sequence of LXR β LBD protein (P55055 222-460 limits assumed): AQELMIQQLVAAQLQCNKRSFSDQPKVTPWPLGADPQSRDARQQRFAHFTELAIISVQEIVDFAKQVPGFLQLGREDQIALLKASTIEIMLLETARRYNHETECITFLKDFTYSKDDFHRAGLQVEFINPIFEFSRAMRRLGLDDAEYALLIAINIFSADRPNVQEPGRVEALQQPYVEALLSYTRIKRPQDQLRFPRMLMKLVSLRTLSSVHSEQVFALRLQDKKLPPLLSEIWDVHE
Sequence of Gal4 DNA binding domain fused to the LBD of LXRβ in HEK293 cells (P55055 222-460 limits assumed): as above

SMILES | Cell LXRα efficacy [1] | EC50 [1] [nM] | Ki (LXR α LBD protein) [nM] | Cell LXRβ efficacy [2, 3] | EC50 [2, 4] [nM] | Ki (LXR β LBD protein; [5]) [nM] | EC50 ([1]; agonist mode) [nM] | EC50 [2] [nM] | Ki (LXR β LBD protein) [nM] | Cell LXRβ efficacy ([2]; agonist mode) | Ki (LXR β LBD protein; read-out: LXRβ Binding Ki) [nM] | Cell LXRβ efficacy [2] | EC50 [1, 3] [nM] | EC50 [2, 6] [nM]
CS(=O)(=O)c1cc(N2CCN(C[C@H]3CC[C@H](C(F)(F)F)CC3)[C@@H](c3ccccc3)C2)ccc1CO (single isomer, unassigned) [48-45] | 431 (65) % | 431 | 75 | 33% | 140 | 21 |  |  |  |  |  |  |  | 
COCCCN(C)C(=O)c1cnc(N2CCN(c3ccc(F)c(S(C)(=O)=O)c3)C[C@H]2C(C)C)nc1C [17-31, (R)-2-(4-(4-fluoro-3-(methylsulfonyl)phenyl)-2-isopropylpiperazin-1-yl)-N-(3-methoxypropyl)-N,4-dimethylpyrimidine-5-carboxamide] |  |  | > 3330 |  |  |  | > 20000 | > 20000 | 2450 |  |  |  |  | 
CC(C)[C@H]1CN(c2ccc(CO)c(S(C)(=O)=O)c2)CCN1c1ncc(C(C)(C)O)c(C(F)(F)F)n1 [10-5, (S)-2-(2-(4-(4-(hydroxymethyl)-3-(methylsulfonyl)phenyl)-2-isopropylpiperazin-1-yl)-4-(trifluoromethyl)pyrimidin-5-yl)propan-2-ol] | 3627 (67) % |  | 1280 |  |  |  | 3630 | 980 |  | 980 (58) % | 230 |  |  | 
C[C@@](O)(c1ccc(CN2CCN(c3cccc(S(C)(=O)=O)c3)C[C@@H]2c2ccccc2)cc1)C(F)(F)F [46-31, (R)-1,1,1-trifluoro-2-(4-(((S)-4-(3-(methylsulfonyl)phenyl)-2-phenylpiperazin-1-yl)methyl)phenyl)propan-2-ol] |  | > 20000 | 6560 |  |  |  |  | > 20000 | 2170 |  |  |  |  | 
CC(C)[C@@H]1CN(c2ccc(F)c(S(C)(=O)=O)c2)CCN1c1cnc(C(F)(F)F)cn1 [Cpd No 7-44, (R)-2-(4-(4-fluoro-3-(methylsulfonyl)phenyl)-2-isopropylpiperazin-1-yl)-5-(trifluoromethyl)pyrazine] | 120 (97) % |  | 43 |  |  |  | 120 | 19 |  |  | 4 | 19 (118) % |  | 
CC(C)(O)c1cnc(N2CCN(c3ccc(F)c(S(C)(=O)=O)c3)CC2C(C)(C)C)nc1C(F)(F)F (stereo not shown) [10-4, 2-(2-(2-(tert-butyl)-4-(4-fluoro-3-(methylsulfonyl)phenyl)piperazin-1-yl)-4-(trifluoromethyl)pyrimidin-5-yl)propan-2-ol] | 1034 (28) % | 1030 | 59 |  |  |  |  | 128 |  | 128 (13) % | 6 |  |  | 
CS(=O)(=O)c1cc(N2CCN(C[C@H]3CC[C@@H](C(F)(F)F)CC3)[C@H](c3ccccc3)C2)ccc1C#N (single isomer, unassigned) [50-5] | 10000 (7) % | 10000 | 6550 | 11% | 997 | 688 |  |  |  |  |  |  |  | 
CC(=O)NCc1cnc(N2CCN(c3ccc(F)c(S(C)(=O)=O)c3)C[C@H]2C(C)C)nc1C(F)(F)F [54-2, (R)-N-((2-(4-(4-fluoro-3-(methylsulfonyl)phenyl)-2-isopropylpiperazin-1-yl)-4-(trifluoromethyl)pyrimidin-5-yl)methyl)acetamide] | 3064 (29) % | 3060 | 863 | 812 (27) % |  | 81 |  | 812 |  |  |  |  |  | 
CC(C)[C@H]1CN(c2cccc(S(C)(=O)=O)c2)CCN1C[C@H]1CC[C@@H](C(F)(F)F)OC1 (single isomer, unassigned) [Cpd No 49-5] | 578 (64) % | 578 | 421 |  |  |  |  | 266 | 70 |  |  | 266 (77) % |  | 
CS(=O)(=O)c1cccc(N2CCN(C[C@H]3CC[C@@H](C(F)(F)F)OC3)[C@@H](c3ccc(F)cc3)C2)c1 (single isomer, unassigned) [49-9] | 1643 (32) % | 1640 | 1210 | 575 (23) % |  |  |  | 575 | 150 |  |  |  |  | 
CS(=O)(=O)c1cccc(N2CCN(CC3(F)CCN(CC(F)(F)F)CC3)[C@@H](c3ccccc3)C2)c1 (single isomer, unassigned) [48-53] | 2169 (43) % |  | 2180 | 711 (20) % |  | 259 |  | 711 |  |  |  |  | 2170 | 
CC(C)[C@@H]1CN(c2ccc(C#N)c(S(C)(=O)=O)c2)CCN1c1ncc([C@@H](C)O)c(C(F)(F)F)n1 (single isomer, unassigned) [12-4] | 4457 (58) % | 4460 | 1450 |  |  |  |  | 652 |  | 652 (50) % | 111 |  |  | 
CO[C@H]1CC[C@H](CN2CCN(c3ccc(CO)c(S(C)(=O)=O)c3)C[C@@H]2C(C)C)CC1 (single isomer, unassigned) [51-6] | 1772 (45) % | 1770 | 2800 | 45% | 400 | 543 |  |  |  |  |  |  |  | 
CC(C)[C@@H]1CN(c2ccc(F)c(S(C)(=O)=O)c2)CCN1c1nccc(C#N)n1 [7-7, (R)-2-(4-(4-fluoro-3-(methylsulfonyl)phenyl)-2-isopropylpiperazin-1-yl)pyrimidine-4-carbonitrile] | 1467 (69) % |  | 421 |  |  |  | 1470 | 404 |  | 404 (60) % | 47 |  |  | 
CS(=O)(=O)c1cc(N2CCN(C[C@H]3CC[C@@H](C(F)(F)F)CC3)[C@@H](c3ccccc3)C2)ccc1C#N (single isomer, unassigned) [50-6] | 429 (81) % | 429 | 241 | 53% | 226 | 58 |  |  |  |  |  |  |  | 
CCOC(=O)c1cnc(N2CCN(c3ccc(-c4nnc(C)s4)c(S(C)(=O)=O)c3)C[C@H]2C(C)C)nc1C(F)(F)F [9-13, ethyl (R)-2-(2-isopropyl-4-(4-(5-methyl-1,3,4-thiadiazol-2-yl)-3-(methylsulfonyl)phenyl)piperazin-1-yl)-4-(trifluoromethyl)pyrimidine-5-carboxylate] | 2862 (21) % |  | 703 |  |  |  | 2860 | 1200 |  | 1204 (34) % | 171 |  |  | 
CC(C)[C@H]1CN(c2cccc(S(C)(=O)=O)c2)CCN1CC1CCC(C)(C)OC1 (stereo partly drawn) [51-3, (2S)-1-((6,6-dimethyltetrahydro-2H-pyran-3-yl)methyl)-2-isopropyl-4-(3-(methylsulfonyl)phenyl)piperazine] | 3460 (51) % |  | 3170 | 590 (50) % |  | 482 |  | 590 |  |  |  |  | 3460 | 
COC(c1cnc(N2CCN(c3ccc(F)c(S(C)(=O)=O)c3)C[C@H]2C(C)C)nc1)C(F)(F)F (stereo partly drawn) [Cpd No 42-1, 2-((R)-4-(4-fluoro-3-(methylsulfonyl)phenyl)-2-isopropylpiperazin-1-yl)-5-(2,2,2-trifluoro-1-methoxyethyl)pyrimidine] | 763 (48) % | 763 | 366 |  |  |  |  | 124 |  |  | 33 | 124 (20) % |  | 
C[C@H](c1ccc(C(F)(F)F)cc1)N1CCN(c2cccc(S(C)(=O)=O)c2)C[C@H]1c1ccccc1 [46-19, (R)-4-(3-(methylsulfonyl)phenyl)-2-phenyl-1-((R)-1-(4-(trifluoromethyl)phenyl)ethyl)piperazine] |  | > 20000 | > 3330 |  |  |  |  | 4350 | 1900 |  |  | 4348 (6) % |  | 
CS(=O)(=O)c1cc(N2CCN(C[C@H]3CC[C@H](C(F)(F)F)CC3)[C@H](c3ccccc3)C2)ccc1CO (single isomer, unassigned) [48-44] | 11556 (50) % | 11600 | 10800 |  |  |  |  |  |  | 34% | 972 |  |  | 3100
CS(=O)(=O)c1cccc(N2CCN(C[C@H]3CC[C@@](C)(O)CC3)[C@H](c3ccccc3)C2)c1 (single isomer, unassigned) [48-6] |  | > 20000 | 30900 |  |  |  |  |  |  |  | > 2500 |  |  | > 20000
C[C@](O)(c1ccc(CN2CCN(c3cccc(S(C)(=O)=O)c3)C[C@@H]2c2ccccc2)cc1)C(F)(F)F (single isomer, unassigned) [46-28] | 4974 (24) % | 4970 | 3650 |  |  |  |  | 1890 | 501 | 1885 (16) % |  |  |  | 
CS(=O)(=O)c1cccc(N2CCN(C[C@H]3CC[C@](C)(O)CC3)[C@@H](c3ccccc3)C2)c1 (single isomer, unassigned) [Cpd No 48-7] | 4661 (6) % | 4660 | 4530 |  |  |  |  |  |  |  | 465 |  |  | > 20000
CC(C)[C@H]1CN(c2ccc(CO)c(S(C)(=O)=O)c2)CCN1C[C@H]1CC[C@H](C(F)(F)F)OC1 (single isomer, unassigned) [Cpd No 49-2] | 122 (63) % | 122 | 194 |  |  |  |  | 78 |  |  | 23 | 78 (83) % |  | 
